Read-outs that look alike come from different tables or passages of the source.
Tests used:
[1] = system: orientation hypermotility; experiment: Sedative action: reduction of orientation hypermotility induced by a new environment; format: in vivo, female NMRI mice; settings: for ED50: po, 0.5 h, read-out: Sedative action (mouse) ED50
Procedure: The test substances were administered orally to groups comprising three female NMRI mice each. The orientation hypermotility induced by a new environment is determined photoelectrically, 30 minutes after administration of the substance, over a period of 30 minutes.
The ED50, ie. the dose which produces 50% reduction in orientation hypermotility compared to untreated control animals, was determined.

[2] = system: reserpine-induced hypothermia; experiment: Antidepressant action: inhibition of reserpine-induced hypothermia; format: in vivo, male mice (Swiss); settings: for ED50: po, read-out: Antidepressant action (mouse) ED50
Procedure: Antidepressants produce a dose-dependent inhibition of this hypothermia. The test substances were administered orally 60 minutes before reserpine.

[3] = mouse, administered orally, 30 min after administration, over 30 min, 50% reduction in orientation hypermotility
[4] = mouse, administered orally 60 minutes before reserpine (2.15 mg/kg s.c.), 50% inhibition of hypothermia

Structure (SMILES) | ED50 [1, 3] [mg/kg] | ED50 [2, 4] [mg/kg] | weak suppressant effect on the central nervous system (in words) ([1]; known, and also found in the test for sedative action) | antidepressant action (in words) ([2]; up to the maximum test dose of 2,150 mg/kg, administered orally) | ED50 ([1]; Mus musculus) [mg/kg] | ED50 ([2]; Mus musculus) [mg/kg]
CC(=CC#N)CN1C(=O)c2ccccc2S1(=O)=O [Example 1, 3-(2,3-dihydro-1,1-dioxido-3-oxo-1,2-benzisothiazol-2-yl)-1-cyano-2-methylprop-1-ene] | 50 | 3.5 | – | – | – | –
CC(=CC#N)CN1C(=O)c2cc(Cl)ccc2S1(=O)=O [Example 6, 3-(2,3-Dihydro-5-chloro-1,1-dioxido-3-oxo-1,2-benzisothiazol-2-yl)-1-cyano-2-methylprop-1-ene] | 100 | 1.1 | – | – | – | –
O=C1NCCCC1N1C(=O)c2ccccc2S1(=O)=O (stereo not drawn) [Supidimide, 3-(2,3-dihydro-1,1-dioxido-3-oxo-1,2-benzisothiazol-2-yl)-2-oxopiperidine, reference compound] | 277 | 2150 | weak suppressant effect on the central nervous system | completely absent | – | –
CC(=CC#N)CCN1C(=O)c2ccccc2C1=O [Example 18, 4-(Phthalimid-2-yl)-1-cyano-2-methylbut-1-ene] | 29 | 4.5 | – | – | – | –
CC(=CC#N)CN1C(=O)c2ccccc2C1=O [Example 11, 3-(Phthalimid-2-yl)-1-cyano-2-methylprop-1-ene] | 68 | 18.9 | – | – | – | –
CC(=CC#N)CN1C(=O)c2c(Cl)cccc2S1(=O)=O [Example 4, 3-(2,3-Dihydro-4-chloro-1,1-dioxido-3-oxo-1,2-benzisothiazol-2-yl)-1-cyano-2-methylprop-1-ene] | 52 | 3.1 | – | – | – | –
CC(=CC#N)CN1Cc2ccccc2C1=O [Example 12, 3-(Phthalimidin-2-yl)-1-cyano-2-methylprop-1-ene] | 49 | 11.4 | – | – | – | –
CN(C)CCCN1c2ccccc2CCc2ccccc21 [Imipramine, reference compound] | – | – | – | – | ~100 | 6.8

From patent US4563474A, “Phthalimides and thienopyrrols as drugs” (BASF Aktiengesellschaft, priority 1982, dated 1986)
